Laboratory results reported in patent US9012651B2, “TRPV3 modulators” (AbbVie Inc., priority 2011, dated 2015).

Tested on: mouse Chronic Constriction Injury Model of neuropathic pain
Test: Chronic Constriction Injury (CCI) model of neuropathic pain, mechanical allodynia (von Frey)
Assay type: in vivo
Conditions: CD1 mice; acute oral administration, 100 mg/kg oral dose; 1 hour pretreatment P.O.; von Frey monofilaments
Excerpt: Chronic Constriction Injury (CCI) Model of Neuropathic Pain:
CD1 mice (Charles River) were used for these studies. Prior to testing (2-4 weeks) animals underwent a surgical procedure consisting of approximately 3 loose ligatures around the sciatic nerve. Briefly, following sterilization procedures, under isofluorane anesthetic, a 1.5 cm incision was made dorsal to the pelvis. The biceps femoris and gluteous superficialis (right side) were separated and the sciatic nerve exposed, isolated, and 2-4 loose ligatures (5-0 chromic gut) with <1 mm spacing were placed around it. Following hemostasis, the wound was sutured (layer of muscle closed with 5-0 nylon suture, and the wound closed with surgical staples) and coated with iodine. The mice were allowed to recover on a warming plate and are returned to their home cages (soft bedding) when able to walk on their own. Two to four weeks after the surgery, TRPV3 antagonsists were tested in these mice following P.O. (1 hour pretreatment) or I.P. (30 minutes pretreatment) dosing, and mechanical allodynia evaluated where the threshold to response was assessed using calibrated von Frey monofilaments. The von Frey monofilaments were applied to the hind paw at increasing forces until the animal responded by lifting its paw. […]
For CC(C)[C@H](CO)NCc1nc(-c2ccc(C(F)(F)F)nc2)ccc1F [Example 28, (2R)-2-({[5-fluoro-6′-(trifluoromethyl)-2,3′-bipyridin-6-yl]methyl}amino)-3-methylbutan-1-ol], the “effects vs. vehicle in the mouse Chronic Constriction Injury Model of neuropathic pain” value was “statistically significant effects vs. vehicle”.
In the case of CC(C)[C@H](CO)NCc1nc(C2CCCCC2)ccc1F [Example 129], the “effects vs. vehicle in the mouse Chronic Constriction Injury Model of neuropathic pain” value is reported as “statistically significant effects vs. vehicle”.

Tested on: TRPV3
Test: not given
Conditions: TRPV3 activation; relatively weak and nonspecific across TRPs; cited from earlier work
In the case of c1ccc(B(OB(c2ccccc2)c2ccccc2)c2ccccc2)cc1 [DPBA, diphenylboronic anhydride], the EC50 is listed as roughly 40000 nM.
In the case of NCCOB(c1ccccc1)c1ccccc1 [Example 2-APB, 2-aminoethoxydiphenylborate], the EC50 is listed as roughly 40000 nM.

Target: human TRPV3 receptors (Homo sapiens (Human), UniProt Q8NET8)
Sequence (Q8NET8 whole entry): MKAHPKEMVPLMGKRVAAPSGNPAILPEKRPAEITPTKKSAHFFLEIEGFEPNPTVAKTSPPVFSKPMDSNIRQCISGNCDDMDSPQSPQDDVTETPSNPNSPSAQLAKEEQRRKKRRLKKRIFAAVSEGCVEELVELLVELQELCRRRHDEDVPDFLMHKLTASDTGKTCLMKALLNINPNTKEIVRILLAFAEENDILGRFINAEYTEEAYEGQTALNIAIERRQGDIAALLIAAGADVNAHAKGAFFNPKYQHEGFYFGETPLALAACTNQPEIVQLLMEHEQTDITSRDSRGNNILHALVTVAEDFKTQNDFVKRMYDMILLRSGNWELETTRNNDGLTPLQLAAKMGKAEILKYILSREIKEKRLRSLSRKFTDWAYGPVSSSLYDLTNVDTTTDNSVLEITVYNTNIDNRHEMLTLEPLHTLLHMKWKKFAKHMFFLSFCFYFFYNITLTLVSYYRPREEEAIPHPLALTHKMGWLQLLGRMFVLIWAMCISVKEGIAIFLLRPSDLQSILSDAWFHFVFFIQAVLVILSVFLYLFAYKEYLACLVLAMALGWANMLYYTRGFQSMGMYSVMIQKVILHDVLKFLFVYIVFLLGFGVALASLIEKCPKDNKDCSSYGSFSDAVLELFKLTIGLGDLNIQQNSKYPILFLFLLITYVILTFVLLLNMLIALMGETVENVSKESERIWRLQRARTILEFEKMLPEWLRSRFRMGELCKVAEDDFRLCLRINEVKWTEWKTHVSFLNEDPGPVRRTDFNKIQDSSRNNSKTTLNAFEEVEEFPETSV
Test: Calcium flux assay (FLIPR TETRA), inhibition of the 2-APB response
Assay type: cell-based
Conditions: recombinant HEK293 cells stably expressing TRPV3, Calcium-4 dye, 2-APB at its EC80
Outline: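 Responses are given relative to the maximal 2-APB signal in the absence of compound, using peak fluorescence over baseline. Measured by FLIPR Tetra calcium flux in stable human and mouse TRPV3 HEK293 cells after 90-120 min dark dye incubation.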
CC(C)[C@H](CO)NCc1nc(-c2ccc(C(F)(F)F)nc2)ccc1F [Example 28, (2R)-2-({[5-fluoro-6′-(trifluoromethyl)-2,3′-bipyridin-6-yl]methyl}amino)-3-methylbutan-1-ol] showed an IC50 of 950 nM.
In the case of CC(C)[C@H](CO)NCc1nc(C2CCCCC2)ccc1F [Example 129], the IC50 is reported as 360 nM.
In the case of CC(C)[C@H](CO)NCc1cccc(-c2ccc(F)c(C(F)(F)F)c2)n1 [Example 267, (2R)-2-[({6-[4-fluoro-3-(trifluoromethyl)phenyl]pyridin-2-yl}methyl)amino]-3-methylbutan-1-ol], the IC50 is reported as 180 nM.
With OCC1(NCc2cccc(-c3ccc(F)c(C(F)(F)F)c3)n2)CCCC1 [Example 268, {1-[({6-[4-fluoro-3-(trifluoromethyl)phenyl]pyridin-2-yl}methyl)amino]cyclopentyl}methanol] the IC50 was 420 nM.
With CC(C)[C@H](CO)NCc1cccc(-c2ccc(F)c(C#N)c2)n1 [Example 269, 2-fluoro-5-[6-({[(2R)-1-hydroxy-3-methylbutan-2-yl]amino}methyl)pyridin-2-yl]benzonitrile] the IC50 was 440 nM.
In the case of CC(C)[C@H](CO)NCc1cccc(-c2ccc(C(F)(F)F)cc2C(F)(F)F)n1 [Example 270, (2R)-2-[({6-[2,4-bis(trifluoromethyl)phenyl]pyridin-2-yl}methyl)amino]-3-methylbutan-1-ol], the IC50 is reported as 550 nM.
OCC1(NCc2cccc(-c3ccc(C(F)(F)F)cc3C(F)(F)F)n2)CCCC1 [Example 271, {1-[({6-[2,4-bis(trifluoromethyl)phenyl]pyridin-2-yl}methyl)amino]cyclopentyl}methano 1] gave an IC50 of 580 nM.
For OCC1(NCc2cccc(-c3cc(C(F)(F)F)cc(C(F)(F)F)c3)n2)CCCC1 [Example 272, {1-[({6-[3,5-bis(trifluoromethyl)phenyl]pyridin-2-yl}methyl)amino]cyclopentyl}methano 1], the IC50 was 220 nM.
CC(C)[C@H](CO)NCc1nc(-c2cc3ccccc3n2C(=O)OC(C)(C)C)ccc1F [Example 273, tert-butyl 2-[5-fluoro-6-({[(2R)-1-hydroxy-3-methylbutan-2-yl]amino}methyl)pyridin-2-yl]-1H-indole-1-carboxylate] showed an IC50 of 120 nM.
With CC(C)[C@H](CO)NCc1nc(-c2cc3ccccc3[nH]2)ccc1F [Example 274, (2R)-2-({[3-fluoro-6-(1H-indol-2-yl)pyridin-2-yl]methyl}amino)-3-methylbutan-1-ol] the IC50 was 260 nM.
CC1CCN(C(=O)c2ccc(-c3ccc(F)c(CN[C@@H](CO)C(C)C)n3)cc2)CC1 [Example 275, {4-[5-fluoro-6-({[(2R)-1-hydroxy-3-methylbutan-2-yl]amino}methyl)pyridin-2-yl]phenyl}(4-methylpiperidin-1-yl)methanone] showed an IC50 of 1330 nM.
For CC(C)[C@H](CO)NCc1nc(-c2ccc(C(=O)N3CCCC3)cc2)ccc1F [Example 276, {4-[5-fluoro-6-({[(2R)-1-hydroxy-3-methylbutan-2-yl]amino}methyl)pyridin-2-yl]phenyl}(pyrrolidin-1-yl)methanone], the IC50 was 10900 nM.
CCCN(CCC)C(=O)c1ccc(-c2ccc(F)c(CN[C@@H](CO)C(C)C)n2)cc1 [Example 277, 4-[5-fluoro-6-({[(2R)-1-hydroxy-3-methylbutan-2-yl]amino}methyl)pyridin-2-yl]-N,N-dipropylbenzamide] showed an IC50 of 650 nM.
In the case of CC(C)[C@H](CO)NCc1nc(-c2cncc(Cl)c2)ccc1F [Example 278, (2R)-2-{[(5′-chloro-5-fluoro-2,3′-bipyridin-6-yl)methyl]amino}-3-methylbutan-1-ol], the IC50 is reported as 2690 nM.
CC(C)[C@H](CO)NCc1nc(-c2ccc(F)c(C#N)c2)ccc1F [Example 279, 2-fluoro-5-[5-fluoro-6-({[(2R)-1-hydroxy-3-methylbutan-2-yl]amino}methyl)pyridin-2-yl]benzonitrile] showed an IC50 of 940 nM.
For Cc1cc(-c2ccc(F)c(CN[C@@H](CO)C(C)C)n2)ccc1F [Example 280, (2R)-2-({[3-fluoro-6-(4-fluoro-3-methylphenyl)pyridin-2-yl]methyl}amino)-3-methylbutan-1-ol], the IC50 was 250 nM.
With CC(C)[C@H](CO)NCc1nc(-c2ccc(F)c(C(F)(F)F)c2)ccc1F [Example 281, (2R)-2-[({3-fluoro-6-[4-fluoro-3-(trifluoromethyl)phenyl]pyridin-2-yl}methyl)amino]-3-methylbutan-1-ol] the IC50 was 390 nM.
CC(C)[C@H](CO)NCc1nc(-c2cc(C(F)(F)F)ccc2F)ccc1F [Example 282, (2R)-2-[({3-fluoro-6-[2-fluoro-5-(trifluoromethyl)phenyl]pyridin-2-yl}methyl)amino]-3-methylbutan-1-ol] showed an IC50 of 370 nM.
Compound COc1cc(-c2ccc(F)c(CN[C@@H](CO)C(C)C)n2)cc(F)c1F [Example 283, (2R)-2-({[6-(3,4-difluoro-5-methoxyphenyl)-3-fluoropyridin-2-yl]methyl}amino)-3-methylbutan-1-ol] has an IC50 of 260 nM.
Work on CC(C)[C@H](CO)NCc1cccc(C#Cc2ccc(F)cc2F)n1 [Example 284, (2R)-2-[({6-[(2,4-difluorophenyl)ethynyl]pyridin-2-yl}methyl)amino]-3-methylbutan-1-ol] yielded an IC50 of 520 nM.
CC(C)[C@H](CO)NCc1cccc(C#Cc2ccccc2F)n1 [Example 285, (2R)-2-[({6-[(2-fluorophenyl)ethynyl]pyridin-2-yl}methyl)amino]-3-methylbutan-1-ol] showed an IC50 of 990 nM.
With CC(C)[C@H](CO)NCc1cccc(C#Cc2ccc(Cl)cc2)n1 [Example 286, (2R)-2-[({6-[(4-chlorophenyl)ethynyl]pyridin-2-yl}methyl)amino]-3-methylbutan-1-ol] the IC50 was 520 nM.
In the case of Cc1nc(-c2ccccc2)sc1-c1ccc(F)c(CN[C@@H](CO)C(C)C)n1 [Example 287, (2R)-2-({[3-fluoro-6-(4-methyl-2-phenyl-1,3-thiazol-5-yl)pyridin-2-yl]methyl}amino)-3-methylbutan-1-ol], the IC50 is reported as 730 nM.
CC(C)[C@H](CO)NCc1nc(C#CCCC2CCCCC2)ccc1F [Example 288, (2R)-2-({[6-(4-cyclohexylbut-1-yn-1-yl)-3-fluoropyridin-2-yl]methyl}amino)-3-methylbutan-1-ol] gave an IC50 of 170 nM.
For CC(C)[C@H](CO)NCc1nc(C#Cc2ccccc2)ccc1F [Example 289, (2R)-2-({[3-fluoro-6-(phenylethynyl)pyridin-2-yl]methyl}amino)-3-methylbutan-1-ol], the IC50 was 130 nM.
CC(C)[C@H](CO)NCc1nc(-c2ccc(C(F)(F)F)s2)ccc1F [Example 290] showed an IC50 of 170 nM.
In the case of CC(C)[C@H](CO)NCc1nc(-c2cc(C(F)(F)F)nn2C)ccc1F [Example 291, (2R)-2-[({3-fluoro-6-[1-methyl-3-(trifluoromethyl)-1H-pyrazol-5-yl]pyridin-2-yl}methyl)amino]-3-methylbutan-1-ol], the IC50 is reported as 790 nM.
Work on CC(C)[C@H](CO)NCc1nc(-c2cncc(C(F)(F)F)c2)ccc1F [Example 292, (2R)-2-({[5-fluoro-5′-(trifluoromethyl)-2,3′-bipyridin-6-yl]methyl}amino)-3-methylbutan-1-ol] yielded an IC50 of 280 nM.
With CC(C)[C@H](CO)NCc1nc(-c2ccc(C(F)(F)F)cc2C(F)(F)F)ccc1F [Example 293, (2R)-2-[({6-[2,4-bis(trifluoromethyl)phenyl]-3-fluoropyridin-2-yl}methyl)amino]-3-methylbutan-1-ol] the IC50 was 550 nM.
For CC(C)[C@H](CO)NCc1nc(-c2ccc(F)c(Cl)c2)ccc1F [Example 294, (2R)-2-({[6-(3-chloro-4-fluorophenyl)-3-fluoropyridin-2-yl]methyl}amino)-3-methylbutan-1-ol], the IC50 was 120 nM.
With “{1-[({2-[5-(trifluoromethyl)pyridin-2-yl]pyrimidin-4-yl}methyl)amino]cyclohexyl}methanol [Example 193]” the IC50 was greater than 20000 nM.
